Data: ChEMBL document CHEMBL5649166, “RIP3 induces apoptosis independent of pronecrotic kinase activity” (Mol Cell, 2014)

Key:
3T3SA [1] = experiment: Induction of apoptosis in mouse 3T3SA cells assessed as membrane blebbing incubated for 2.5 hrs; assay type: toxicity, cell-based
3T3SA [2] = experiment: Induction of apoptosis in mouse 3T3SA cells assessed as increase in caspase 8 proteolytic activity incubated for 2.5 hrs; assay type: toxicity, cell-based
3T3SA [3] = experiment: Induction of apoptosis in mouse 3T3SA cells assessed as cleaved caspase 8 accumulation incubated for 2.5 hrs by immunoblot analysis; assay type: toxicity, cell-based
MEF [4] = experiment: Induction of apoptosis in cFLIPL-/- MEF cells incubated for 18 hrs by Cell Titer-Glo luminescent cell viability assay; assay type: toxicity, cell-based; settings: mouse
NIH3T3 = experiment: Induction of apoptosis in mouse NIH/3T3 cells expressing low level of […] at 1 to 10 uM incubated for 18 hrs by Cell Titer-Glo luminescent cell viability assay; assay type: toxicity, cell-based; settings: nih3t3, 18 h, dose 1-10 µM
3T3SA [5] = experiment: Induction of apoptosis in mouse 3T3SA cells assessed as accumulation of cleaved caspase-3 by measuring percentage of cleaved caspase-3 positive cells measured after 2.5 hrs in presence of zVAD by immunoblot analysis (reference value: 4%); assay type: toxicity, cell-based
SVEC4-10 = experiment: Induction of apoptosis in mouse SVEC4-10 cells transfected with RIP3 shRNA at 10 uM incubated for 18 hrs by Cell Titer-Glo luminescent cell viability assay; assay type: toxicity, cell-based; settings: svec4-10, 18 h
3T3SA [6] = experiment: Induction of apoptosis in RIP3shRNA transfected mouse 3T3SA cells co-transfected with shRNA-resistant RIP3 D161G mutant pre-tranfected for 16 hrs followed by compound addition and measured after 18 hrs in presence of zVAD by Cell Titer-Glo luminescent cell viability assay; assay type: toxicity, cell-based
3T3SA [7] = experiment: Induction of apoptosis in vICA expression plasmid transfected mouse 3T3SA cells co-transfected with shRNA-resistant RIP3 D143N mutant incubated for 12 hrs by Cell Titer-Glo luminescent cell viability assay; assay type: toxicity, cell-based
MEF [8] = experiment: Induction of apoptosis in RIP3-/- MEF cells transfected with RIP3 K51A mutant incubated for 18 hrs by Cell Titer-Glo luminescent cell viability assay; assay type: toxicity, cell-based; settings: mouse
MEF [9] = experiment: Induction of apoptosis in cFLIPL-/- MEF cells transfected with cFLIPL expressing retrovirus incubated for 18 hrs by Cell Titer-Glo luminescent cell viability assay; assay type: toxicity, cell-based; settings: mouse
3T3SA [10] = experiment: Induction of apoptosis in RIP3 shRNA transfected mouse 3T3SA cells co-transfected with shRNA resistant RIP3 assessed as accumulation of wildtype RIP3 in pellet incubated for 3 hrs in presence of zVAD by immunoblot analysis; assay type: toxicity, cell-based
3T3SA [11] = experiment: Induction of apoptosis in RIP3shRNA transfected mouse 3T3SA cells co-transfected with shRNA-resistant RIP3 D143N mutant pre-tranfected for 16 hrs followed by compound addition and measured after 18 hrs in presence of zVAD by Cell Titer-Glo luminescent cell viability assay; assay type: toxicity, cell-based
3T3SA [12] = experiment: Induction of apoptosis in mouse 3T3SA cells incubated for 18 hrs in presence of zVAD by Cell Titer-Glo luminescent cell viability assay; assay type: toxicity, cell-based
3T3SA [13] = experiment: Induction of apoptosis in mouse 3T3SA cells in presence of vIRA by Cell Titer-Glo luminescent cell viability assay; assay type: toxicity, cell-based
3T3SA [14] = experiment: Induction of apoptosis in mouse 3T3SA cells transfected with RIP3 shRNA at 10 uM incubated for 18 hrs by Cell Titer-Glo luminescent cell viability assay; assay type: toxicity, cell-based
3T3SA [15] = experiment: Induction of apoptosis in RIP3shRNA transfected mouse 3T3SA cells co-transfected with shRNA-resistant RIP3 D161N mutant pre-tranfected for 16 hrs followed by compound addition and measured after 18 hrs in presence of zVAD by Cell Titer-Glo luminescent cell viability assay; assay type: toxicity, cell-based
3T3SA [16] = experiment: Induction of apoptosis in mouse 3T3SA cells transfected with RIP3 shRNA assessed as increase in caspase3/7 proteolytic activity incubated for 4 hrs; assay type: toxicity, cell-based
3T3SA [17] = experiment: Induction of apoptosis in RIP3shRNA transfected mouse 3T3SA cells co-transfected with shRNA-resistant RIP3 pre-tranfected for 16 hrs followed by compound addition and measured after 18 hrs in presence of zVAD by Cell Titer-Glo luminescent cell viability assay; assay type: toxicity, cell-based
3T3SA [18] = experiment: Induction of apoptosis in mouse 3T3SA cells transfected with RIP1 siRNA assessed as accumulation of cleaved caspase 8 incubated for 0.5 to 1.5 hrs by immunoblot analysis; assay type: toxicity, cell-based; settings: time 0.5-1.5 hrs
MEF [19] = experiment: Induction of apoptosis in […] MEF cells incubated for 18 hrs by Cell Titer-Glo luminescent cell viability assay; assay type: toxicity, cell-based; settings: mouse
BMDM = experiment: Induction of apoptosis in mouse BMDM cells expressing RIP3 K51A/K51A mutant incubated for 18 hrs by Cell Titer-Glo luminescent cell viability assay; assay type: toxicity, cell-based
3T3SA [20] = experiment: Induction of apoptosis in RIP3 shRNA transfected mouse 3T3SA cells co-transfected with shRNA resistant RIP3 D161G mutant assessed as accumulation of FLAG-tagged RIP3 D161G mutant in pellet incubated for 3 hrs in presence of zVAD by immunoblot analysis; assay type: toxicity, cell-based
3T3SA [21] = experiment: Induction of apoptosis in mouse 3T3SA cells incubated for 18 hrs in presence of BHA by Cell Titer-Glo luminescent cell viability assay; assay type: toxicity, cell-based
3T3SA [22] = experiment: Induction of apoptosis in mouse 3T3SA cells assessed as increase in caspase3/7 proteolytic activity incubated for 2.5 hrs; assay type: toxicity, cell-based
3T3SA [23] = experiment: Induction of apoptosis in mouse 3T3SA cells incubated for 18 hrs in presence of zIETD by Cell Titer-Glo luminescent cell viability assay; assay type: toxicity, cell-based
MEF [24] = experiment: Induction of apoptosis in RIP-/- MEF cells incubated for 18 hrs by Cell Titer-Glo luminescent cell viability assay; assay type: toxicity, cell-based; settings: mouse
3T3SA [25] = experiment: Induction of apoptosis in RIP3 shRNA transfected mouse 3T3SA cells co-transfected with shRNA resistant RIP3 K51A mutant assessed as accumulation of RIP3 K51A mutant in pellet incubated for 3 hrs in presence of zVAD by immunoblot analysis; assay type: toxicity, cell-based
[26] = target: Myosin-IIIb (Homo sapiens) (UniProt Q8WXR4); experiment: Inhibition of human MYO3b using myelin basic protein as substrate at 1 uM in presence of 32P-ATP by Hotspot assay relative to control; values are per cent of control
Myosin-IIIb (Homo sapiens), sequence (Q8WXR4 whole entry): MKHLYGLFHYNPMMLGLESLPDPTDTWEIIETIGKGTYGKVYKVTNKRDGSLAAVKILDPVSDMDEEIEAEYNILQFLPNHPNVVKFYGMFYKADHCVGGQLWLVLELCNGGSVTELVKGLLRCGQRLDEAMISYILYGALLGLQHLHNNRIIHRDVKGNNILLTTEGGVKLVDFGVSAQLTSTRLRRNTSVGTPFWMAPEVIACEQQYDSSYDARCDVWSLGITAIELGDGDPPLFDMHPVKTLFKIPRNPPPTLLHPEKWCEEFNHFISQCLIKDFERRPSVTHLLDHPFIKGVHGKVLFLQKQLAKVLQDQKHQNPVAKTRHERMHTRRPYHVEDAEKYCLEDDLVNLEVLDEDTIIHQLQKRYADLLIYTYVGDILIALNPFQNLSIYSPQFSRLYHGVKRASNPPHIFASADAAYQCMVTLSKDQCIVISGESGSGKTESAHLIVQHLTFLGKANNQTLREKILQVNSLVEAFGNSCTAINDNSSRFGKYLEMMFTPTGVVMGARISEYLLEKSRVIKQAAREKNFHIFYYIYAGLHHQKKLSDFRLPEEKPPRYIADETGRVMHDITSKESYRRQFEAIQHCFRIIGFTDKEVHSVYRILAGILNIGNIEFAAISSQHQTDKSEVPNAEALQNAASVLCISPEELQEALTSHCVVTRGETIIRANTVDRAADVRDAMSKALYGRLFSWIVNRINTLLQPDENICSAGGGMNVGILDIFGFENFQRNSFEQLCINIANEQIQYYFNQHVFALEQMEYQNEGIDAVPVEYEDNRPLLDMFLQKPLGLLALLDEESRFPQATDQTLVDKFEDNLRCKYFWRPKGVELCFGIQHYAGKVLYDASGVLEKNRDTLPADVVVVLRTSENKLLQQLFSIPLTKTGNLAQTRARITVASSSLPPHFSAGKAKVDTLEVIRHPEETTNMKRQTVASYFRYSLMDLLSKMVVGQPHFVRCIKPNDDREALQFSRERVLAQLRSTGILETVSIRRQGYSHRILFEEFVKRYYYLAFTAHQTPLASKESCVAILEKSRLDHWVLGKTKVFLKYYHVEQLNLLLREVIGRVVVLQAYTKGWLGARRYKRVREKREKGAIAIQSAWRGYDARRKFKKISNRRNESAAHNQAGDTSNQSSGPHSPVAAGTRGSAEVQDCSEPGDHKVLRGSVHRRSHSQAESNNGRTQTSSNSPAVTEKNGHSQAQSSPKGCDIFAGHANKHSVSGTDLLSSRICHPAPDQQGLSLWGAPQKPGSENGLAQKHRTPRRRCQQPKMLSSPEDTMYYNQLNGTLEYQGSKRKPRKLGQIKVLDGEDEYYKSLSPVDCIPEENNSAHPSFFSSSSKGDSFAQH

[27] = target: Serine/threonine-protein kinase ULK2 (Homo sapiens) (UniProt Q8IYT8); experiment: Inhibition of human ULK2 using myelin basic protein as substrate at 1 uM in presence of 32P-ATP by Hotspot assay relative to control; values are per cent of control
Serine/threonine-protein kinase ULK2 (Homo sapiens), sequence (Q8IYT8 whole entry): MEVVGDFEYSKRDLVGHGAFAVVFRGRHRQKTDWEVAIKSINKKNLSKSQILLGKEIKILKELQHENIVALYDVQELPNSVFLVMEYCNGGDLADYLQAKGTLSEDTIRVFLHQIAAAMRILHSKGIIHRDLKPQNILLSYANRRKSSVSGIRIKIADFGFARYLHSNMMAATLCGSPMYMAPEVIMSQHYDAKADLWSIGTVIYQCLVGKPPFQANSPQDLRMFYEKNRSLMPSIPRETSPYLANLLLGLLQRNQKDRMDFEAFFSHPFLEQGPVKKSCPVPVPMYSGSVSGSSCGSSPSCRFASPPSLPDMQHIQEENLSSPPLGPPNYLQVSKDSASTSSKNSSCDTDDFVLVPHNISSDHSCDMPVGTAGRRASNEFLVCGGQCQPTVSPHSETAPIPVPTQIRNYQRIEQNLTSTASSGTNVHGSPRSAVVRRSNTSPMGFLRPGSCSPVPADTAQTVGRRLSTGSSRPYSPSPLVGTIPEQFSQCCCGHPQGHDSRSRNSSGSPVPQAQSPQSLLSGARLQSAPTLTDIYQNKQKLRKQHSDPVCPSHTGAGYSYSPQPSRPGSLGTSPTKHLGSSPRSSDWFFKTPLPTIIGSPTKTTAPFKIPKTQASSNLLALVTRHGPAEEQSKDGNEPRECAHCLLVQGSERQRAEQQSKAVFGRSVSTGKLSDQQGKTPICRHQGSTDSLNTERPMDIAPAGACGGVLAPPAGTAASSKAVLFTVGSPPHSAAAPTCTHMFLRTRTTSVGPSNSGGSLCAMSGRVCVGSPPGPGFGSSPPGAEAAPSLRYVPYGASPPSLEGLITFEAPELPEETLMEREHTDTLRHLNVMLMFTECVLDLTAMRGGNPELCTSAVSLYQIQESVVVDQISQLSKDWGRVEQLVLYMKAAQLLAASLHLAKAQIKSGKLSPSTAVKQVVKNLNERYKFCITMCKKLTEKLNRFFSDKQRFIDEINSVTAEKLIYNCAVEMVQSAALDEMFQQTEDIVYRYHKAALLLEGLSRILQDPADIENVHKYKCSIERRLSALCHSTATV

[28] = target: Serine/threonine-protein kinase 38 (Homo sapiens) (UniProt Q15208); experiment: Inhibition of human STK38/NDR1 using KKRNRRLSVA as substrate at 1 uM in presence of 32P-ATP by Hotspot assay relative to control; values are per cent of control
Serine/threonine-protein kinase 38 (Homo sapiens), sequence (Q15208 2-465 limits assumed): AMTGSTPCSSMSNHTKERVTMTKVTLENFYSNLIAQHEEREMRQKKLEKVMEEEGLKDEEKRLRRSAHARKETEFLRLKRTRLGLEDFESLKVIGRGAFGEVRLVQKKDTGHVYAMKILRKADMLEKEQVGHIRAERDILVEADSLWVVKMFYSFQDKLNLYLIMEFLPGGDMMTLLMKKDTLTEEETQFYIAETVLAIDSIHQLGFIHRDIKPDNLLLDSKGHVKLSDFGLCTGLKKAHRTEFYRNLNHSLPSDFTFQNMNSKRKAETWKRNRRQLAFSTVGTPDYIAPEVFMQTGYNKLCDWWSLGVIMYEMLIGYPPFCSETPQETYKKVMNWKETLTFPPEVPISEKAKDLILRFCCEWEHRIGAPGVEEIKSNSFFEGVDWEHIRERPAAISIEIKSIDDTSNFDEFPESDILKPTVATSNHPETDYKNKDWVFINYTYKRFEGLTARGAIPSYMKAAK

[29] = target: Ephrin type-A receptor 6 (Homo sapiens) (UniProt Q9UF33); experiment: Inhibition of human EPHA6 using poly[Glu:Tyr] (4:1) as substrate at 1 uM in presence of 32P-ATP by Hotspot assay relative to control; values are per cent of control
Ephrin type-A receptor 6 (Homo sapiens), sequence (Q9UF33 whole entry): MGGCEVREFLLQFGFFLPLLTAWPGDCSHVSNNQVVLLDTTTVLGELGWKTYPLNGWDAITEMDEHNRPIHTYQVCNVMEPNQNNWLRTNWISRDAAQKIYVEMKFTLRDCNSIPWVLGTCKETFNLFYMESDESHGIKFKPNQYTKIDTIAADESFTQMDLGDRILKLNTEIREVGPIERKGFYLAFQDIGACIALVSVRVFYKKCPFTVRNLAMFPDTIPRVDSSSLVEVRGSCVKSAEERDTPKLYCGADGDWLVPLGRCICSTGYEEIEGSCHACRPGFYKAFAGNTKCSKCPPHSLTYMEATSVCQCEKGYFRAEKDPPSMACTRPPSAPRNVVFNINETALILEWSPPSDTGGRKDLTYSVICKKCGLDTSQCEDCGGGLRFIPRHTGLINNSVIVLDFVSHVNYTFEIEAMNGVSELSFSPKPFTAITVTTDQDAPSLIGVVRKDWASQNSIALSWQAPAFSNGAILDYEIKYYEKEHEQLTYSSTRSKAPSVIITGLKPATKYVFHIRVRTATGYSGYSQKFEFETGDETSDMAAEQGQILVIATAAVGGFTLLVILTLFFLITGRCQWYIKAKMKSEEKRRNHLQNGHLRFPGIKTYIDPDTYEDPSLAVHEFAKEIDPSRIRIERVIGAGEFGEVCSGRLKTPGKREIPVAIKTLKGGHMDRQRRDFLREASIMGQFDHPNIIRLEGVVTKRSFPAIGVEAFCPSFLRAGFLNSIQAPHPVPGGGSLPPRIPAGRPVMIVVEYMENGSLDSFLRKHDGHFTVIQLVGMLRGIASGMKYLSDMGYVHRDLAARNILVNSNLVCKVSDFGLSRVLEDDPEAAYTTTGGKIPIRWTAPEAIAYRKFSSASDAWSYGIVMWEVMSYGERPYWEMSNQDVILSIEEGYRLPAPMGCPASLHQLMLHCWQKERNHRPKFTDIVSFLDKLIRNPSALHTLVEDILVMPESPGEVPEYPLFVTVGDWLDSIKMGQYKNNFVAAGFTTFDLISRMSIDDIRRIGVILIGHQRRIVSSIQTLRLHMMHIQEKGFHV

**Q.** What does the source list for `CC(C)S(=O)(=O)c1ccc2nccc(Nc3ccc4scnc4c3)c2c1`?
**A.** Activity (3T3SA [1]): Toxic; Activity (3T3SA [2]): Toxic; Activity (3T3SA [3]): Toxic; Activity (MEF [4]): Non-Toxic; Activity (NIH3T3): Non-Toxic; Activity (3T3SA [5]): 3%; Activity (SVEC4-10): Non-Toxic; Activity (3T3SA [6]): Non-Toxic; Activity (3T3SA [7]): Non-Toxic; Activity (MEF [8]): Toxic; Activity (MEF [9]): Toxic; Activity (3T3SA [10]): Toxic; Activity (3T3SA [11]): Non-Toxic; Activity (3T3SA [12]): Non-Toxic; Activity (3T3SA [13]): Non-Toxic; Activity (3T3SA [14]): Non-Toxic; Activity (3T3SA [15]): Non-Toxic; Activity (3T3SA [16]): Non-Toxic; Activity (3T3SA [17]): Non-Toxic; Activity (3T3SA [18]): Non-Toxic; Activity (MEF [19]): Non-Toxic; Activity (BMDM): Toxic; Activity (3T3SA [20]): Toxic; Activity (3T3SA [21]): Toxic; Activity (3T3SA [22]): Toxic; Activity (3T3SA [23]): Non-Toxic; Activity (MEF [24]): Non-Toxic; Activity (3T3SA [25]): Toxic

**Q.** `CNC(=O)c1ccc2c(c1)ncn2-c1ccc(CC(=O)OC(C)(C)C)cc1` was tested. Which residual activity [26] did it give?
**A.** 92.4%

**Q.** And the residual activity [27]?
**A.** 96.1%

**Q.** What about the residual activity [28] of the same compound?
**A.** 96.4%

**Q.** What about the residual activity [29] of the same compound?
**A.** 88.9%
